In US7109193B2, “Tricyclic diazepines tocolytic oxytocin receptor antagonists” (Wyeth, priority 2001, dated 2006):

biological target: T1, human oxytocin receptor (Homo sapiens, UniProt P30559); assay: Oxytocin binding in Chinese Hamster Ovary cell membranes expressing human oxytocin receptors; details: 100 nM, CHO cell membranes, [3H]oxytocin, values without parentheses, read-out: OT % inhibition @ 100% nM
T1 construct: host or cells: CHO cells (pcDNA3.1 vector)
T1 sequence (P30559 1-389): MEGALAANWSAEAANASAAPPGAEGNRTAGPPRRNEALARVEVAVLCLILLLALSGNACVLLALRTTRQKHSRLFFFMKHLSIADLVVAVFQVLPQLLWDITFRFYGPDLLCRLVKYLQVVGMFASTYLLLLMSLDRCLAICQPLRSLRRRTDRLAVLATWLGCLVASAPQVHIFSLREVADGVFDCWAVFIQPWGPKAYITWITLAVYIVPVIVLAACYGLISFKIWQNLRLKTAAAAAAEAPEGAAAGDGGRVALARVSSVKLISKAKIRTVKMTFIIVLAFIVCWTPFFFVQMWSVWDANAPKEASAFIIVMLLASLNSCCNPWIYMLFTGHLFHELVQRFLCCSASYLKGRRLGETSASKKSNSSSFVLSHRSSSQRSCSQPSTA

Row | Structure (SMILES) | inhibition at 0.1 µM
1 | COc1cccc(-c2ccc(C(=O)N3Cc4ccc(C(=O)N5CCN(CCN6CCOCC6)CC5)n4Cc4ccccc43)cc2C)c1 [Example 208, {10-[(3′-Methoxy-2-methyl[1,1′-biphenyl]-4-yl)carbonyl]-10,11-dihydro-5H-pyrrolo[2,1-c][1,4]benzodiazepin-3-yl}{4-[2-(4-morpholinyl)ethyl]-1-piperazinyl}methanone] | 81%
2 | Cc1ccccc1-c1ccc(C(=O)N2Cc3ccc(C(=O)N4CCN(CCN5CCOCC5)CC4)n3Cc3ccccc32)cc1 [Example 209, {10-[(2′-Methyl[1,1′-biphenyl]-4-yl)carbonyl]-10,11-dihydro-5H-pyrrolo[2,1-c][1,4]benzodiazepin-3-yl}{4-[2-(4-morpholinyl)ethyl]-1-piperazinyl}methanone] | 81%
3 | COc1cc(C(=O)N2Cc3ccc(C(=O)N4CCN(CCN5CCOCC5)CC4)n3Cc3ccccc32)ccc1-c1ccccc1C [Example 210, {10-[(2-Methoxy-2′-methyl[1,1′-biphenyl]-4-yl)carbonyl]-10,11-dihydro-5H-pyrrolo[2,1-c][1,4]benzodiazepin-3-yl}{4-[2-(4-morpholinyl)ethyl]-1-piperazinyl}methanone] | 82%
4 | COc1cccc(-c2ccc(C(=O)N3Cc4ccc(C(=O)N5CCN(CCN6CCOCC6)CC5)n4Cc4ccccc43)cc2OC)c1 [Example 211, {10-[(2,3′-Dimethoxy[1,1′-biphenyl]-4-yl)carbonyl]-10,11-dihydro-5H-pyrrolo[2,1-c][1,4]benzodiazepin-3-yl}{4-[2-(4-morpholinyl)ethyl]-1-piperazinyl}methanone] | 87%
5 | COc1cc(C(=O)N2Cc3ccc(C(=O)N4CCN(CCN5CCOCC5)CC4)n3Cc3ccccc32)ccc1-c1cccc2ccccc12 [Example 213, {10-[3-Methoxy-4-(1-naphthyl)benzoyl]-10,11-dihydro-5H-pyrrolo[2,1-c][1,4]benzodiazepin-3-yl}{4-[2-(4-morpholinyl)ethyl]-1-piperazinyl}methanone] | 70%
6 | COc1ccccc1-c1ccc(C(=O)N2Cc3ccc(C(=O)N4CCN(CCN5CCOCC5)CC4)n3Cc3ccccc32)cc1OC [Example 214, {10-[(2,2′-Dimethoxy[1,1′-biphenyl]-4-yl)carbonyl]-10,11-dihydro-5H-pyrrolo[2,1-c][1,4]benzodiazepin-3-yl}{4-[2-(4-morpholinyl)ethyl]-1-piperazinyl}methanone] | 64%
7 | O=C(c1ccc2n1Cc1ccccc1N(C(=O)c1ccc(-c3cccc4ccccc34)cc1Cl)C2)N1CCN(CCN2CCOCC2)CC1 [Example 215, {10-[2-Chloro-4-(1-naphthyl)benzoyl]-10,11-dihydro-5H-pyrrolo[2,1-c][1,4]benzodiazepin-3-yl}{4-[2-(4-morpholinyl)ethyl]-1-piperazinyl}methanone] | 26%
8 | Cc1cc(C(=O)N2Cc3ccc(C(=O)N4CCN(CCN5CCOCC5)CC4)n3Cc3ccccc32)ccc1-c1ccccc1C(F)(F)F [Example 216, (10-{[2-Methyl-2′-(trifluoromethyl)[1,1′-biphenyl]-4-yl]carbonyl}-10,11-dihydro-5H -pyrrolo[2,1-c][1,4]benzodiazepin-3-yl){4-[2-(4-morpholinyl)ethyl]-1-piperazinyl}methanone] | 82%
9 | COc1cc(-c2ccccc2C)c(Cl)cc1C(=O)N1Cc2ccc(C(=O)N3CCN(CCN4CCOCC4)CC3)n2Cc2ccccc21 [Example 217, {10-[(6-Chloro-3-methoxy-2′-methyl[1,1′-biphenyl]-4-yl)carbonyl]-10,11-dihydro-5H -pyrrolo[2,1-c][1,4]benzodiazepin-3-yl}{4-[2-(4-morpholinyl)ethyl]-1-piperazinyl}methanone] | 98%
10 | Cc1ccccc1-c1ccc(C(=O)N2Cc3ccc(C(=O)N4CCN(CCN5CCOCC5)CC4)n3Cc3ccccc32)cc1C [Example 218, {10-[(2,2′-Dimethyl[1,1′-biphenyl]-4-yl)carbonyl]-10,11-dihydro-5H-pyrrolo[2,1-c][1,4]benzodiazepin-3-yl}{4-[2-(4-morpholinyl)ethyl]-1-piperazinyl}methanone] | 98%
11 | C=CCN1CCN(C(=O)c2ccc3n2Cc2ccccc2N(C(=O)c2ccc(-c4ccccc4OC)c(C)c2)C3)CC1 [Example 222, (4-Allyl-1-piperazinyl){10-[(2′-methoxy-2-methyl[1,1′-biphenyl]-4-yl)carbonyl]-10,11-dihydro-5H-pyrrolo[2,1-c][1,4]benzodiazepin-3-yl}methanone] | 84%
12 | C=CCN1CCN(C(=O)c2ccc3n2Cc2ccccc2N(C(=O)c2ccc(-c4cccc(OC)c4)c(C)c2)C3)CC1 [Example 223, (4-Allyl-1-piperazinyl){10-[(3′-methoxy-2-methyl[1,1′-biphenyl]-4-yl)carbonyl]-10,11-dihydro-5H-pyrrolo[2,1-c][1,4]benzodiazepin-3-yl}methanone] | 71%
13 | C=CCN1CCN(C(=O)c2ccc3n2Cc2ccccc2N(C(=O)c2ccc(-c4ccccc4C)cc2)C3)CC1 [Example 224, (4-Allyl-1-piperazinyl){10-[(2′-methyl[1,1′-biphenyl]-4-yl)carbonyl]-10,11-dihydro-5H -pyrrolo[2,1-c][1,4]benzodiazepin-3-yl}methanone] | -3%
14 | C=CCN1CCN(C(=O)c2ccc3n2Cc2ccccc2N(C(=O)c2ccc(-c4ccccc4C)c(OC)c2)C3)CC1 [Example 225, (4-Allyl-1-piperazinyl){10-[(2-methoxy-2′-methyl[1,1′-biphenyl]-4-yl)carbonyl]-10,11-dihydro-5H-pyrrolo[2,1-c][1,4]benzodiazepin-3-yl}methanone] | 87%
15 | C=CCN1CCN(C(=O)c2ccc3n2Cc2ccccc2N(C(=O)c2cc(Cl)c(-c4cccc(OC)c4)cc2OC)C3)CC1 [Example 226, (4-Allyl-1-piperazinyl){10-[(6-chloro-3,3′-dimethoxy[1,1′-biphenyl]-4-yl)carbonyl]-10,11-dihydro-5H-pyrrolo[2,1-c][1,4]benzodiazepin-3-yl}methanone] | 71%
16 | C=CCN1CCN(C(=O)c2ccc3n2Cc2ccccc2N(C(=O)c2ccc(-c4ccccc4OC)c(OC)c2)C3)CC1 [Example 227, (4-Allyl-1-piperazinyl){10-[(2,2′-dimethoxy[1,1′-biphenyl]-4-yl)carbonyl]-10,11-dihydro-5H -pyrrolo[2,1-c][1,4]benzodiazepin-3-yl}methanone] | 69%
17 | C=CCN1CCN(C(=O)c2ccc3n2Cc2ccccc2N(C(=O)c2ccc(-c4cccc(OC)c4)c(OC)c2)C3)CC1 [Example 228, (4-Allyl-1-piperazinyl){10-[(2,3′-dimethoxy[1,1′-biphenyl]-4-yl)carbonyl]-10,11-dihydro-5H -pyrrolo[2,1-c][1,4]benzodiazepin-3-yl}methanone] | 77%
18 | C=CCN1CCN(C(=O)c2ccc3n2Cc2ccccc2N(C(=O)c2ccc(-c4cccc5ccccc45)cc2Cl)C3)CC1 [Example 229, (4-Allyl-1-piperazinyl){10-[2-chloro-4-(1-naphthyl)benzoyl]-10,11-dihydro-5H-pyrrolo[2,1-c][1,4]benzodiazepin-3-yl}methanone] | 19%
19 | C=CCN1CCN(C(=O)c2ccc3n2Cc2ccccc2N(C(=O)c2ccc(-c4ccccc4C(F)(F)F)c(C)c2)C3)CC1 [Example 230, (4-Allyl-1-piperazinyl)(10-{[2-methyl-2′-(trifluoromethyl)[1,1′-biphenyl]-4-yl]carbonyl}-10,11-dihydro-5H-pyrrolo[2,1-c][1,4]benzodiazepin-3-yl)methanone] | 67%
20 | C=CCN1CCN(C(=O)c2ccc3n2Cc2ccccc2N(C(=O)c2ccc(-c4cccc5ccccc45)c(OC)c2)C3)CC1 [Example 231, (4-Allyl-1-piperazinyl){10-[3-methoxy-4-(1-naphthyl)benzoyl]-10,11-dihydro-5H -pyrrolo[2,1-c][1,4]benzodiazepin-3-yl}methanone] | 63%
21 | COc1ccccc1-c1ccc(C(=O)N2Cc3ccc(C(=O)N4CCN(C(C)C)CC4)n3Cc3ccccc32)cc1C [Example 232, (4-Isopropyl-1-piperazinyl){10-[(2′-methoxy-2-methyl[1,1′-biphenyl]-4-yl)carbonyl]-10,11-dihydro-5H-pyrrolo[2,1-c][1,4]benzodiazepin-3-yl}methanone] | 81%
22 | Cc1ccccc1-c1ccc(C(=O)N2Cc3ccc(C(=O)N4CCN(C(C)C)CC4)n3Cc3ccccc32)cc1C [Example 233, {10-[(2,2′-Dimethyl[1,1′-biphenyl]-4-yl)carbonyl]-10,11-dihydro-5H-pyrrolo[2,1-c][1,4]benzodiazepin-3-yl}(4-isopropyl-1-piperazinyl)methanone] | 86%
23 | COc1ccccc1-c1ccc(C(=O)N2Cc3ccc(C(=O)N4CCN(C(C)C)CC4)n3Cc3ccccc32)cc1 [Example 234, (4-Isopropyl-1-piperazinyl){10-[(2′-methoxy[1,1′-biphenyl]-4-yl)carbonyl]-10,11-dihydro-5H-pyrrolo[2,1-c][1,4]benzodiazepin-3-yl}methanone] | 82%
24 | COc1cccc(-c2ccc(C(=O)N3Cc4ccc(C(=O)N5CCN(C(C)C)CC5)n4Cc4ccccc43)cc2C)c1 [Example 235, (4-Isopropyl-1-piperazinyl){10-[(3′-methoxy-2-methyl[1,1′-biphenyl]-4-yl)carbonyl]-10,11-dihydro-5H-pyrrolo[2,1-c][1,4]benzodiazepin-3-yl}methanone] | 64%
